# “And” between values parts separate entries of the source, which are not always exact repeats. Equal entries are not always repeated.
# Target: cAMP and cAMP-inhibited cGMP 3',5'-cyclic phosphodiesterase 10A (Homo sapiens, UniProt Q9Y233)
# Test: Enzyme Inhibition Assay: To check the inhibition profile, 5 μL of serial diluted compounds were incubated with 5 μL of diluted PDE10 enzyme (BPS Bioscience, San Diego, Calif.) or tissue homogenate in a 384-well polystyrene assay plate (Corning, Corning, N.Y.) for 30 min at room temperature. After incubation, 10 μL of diluted fluorescein labeled cAMP or cGMP substrate were added and incubated for 60 min at room temperature. The reaction was stopped by adding 60 μL of diluted binding reagents and plates were read on an Envision (Perkin Elmer, Waltham, Mass.) for time resolved fluorescence resonance energy transfer. The data were analyzed with GraphPad Prism (La Jolla, Calif.).
# cAMP and cAMP-inhibited cGMP 3',5'-cyclic phosphodiesterase 10A, sequence (Q9Y233 whole entry): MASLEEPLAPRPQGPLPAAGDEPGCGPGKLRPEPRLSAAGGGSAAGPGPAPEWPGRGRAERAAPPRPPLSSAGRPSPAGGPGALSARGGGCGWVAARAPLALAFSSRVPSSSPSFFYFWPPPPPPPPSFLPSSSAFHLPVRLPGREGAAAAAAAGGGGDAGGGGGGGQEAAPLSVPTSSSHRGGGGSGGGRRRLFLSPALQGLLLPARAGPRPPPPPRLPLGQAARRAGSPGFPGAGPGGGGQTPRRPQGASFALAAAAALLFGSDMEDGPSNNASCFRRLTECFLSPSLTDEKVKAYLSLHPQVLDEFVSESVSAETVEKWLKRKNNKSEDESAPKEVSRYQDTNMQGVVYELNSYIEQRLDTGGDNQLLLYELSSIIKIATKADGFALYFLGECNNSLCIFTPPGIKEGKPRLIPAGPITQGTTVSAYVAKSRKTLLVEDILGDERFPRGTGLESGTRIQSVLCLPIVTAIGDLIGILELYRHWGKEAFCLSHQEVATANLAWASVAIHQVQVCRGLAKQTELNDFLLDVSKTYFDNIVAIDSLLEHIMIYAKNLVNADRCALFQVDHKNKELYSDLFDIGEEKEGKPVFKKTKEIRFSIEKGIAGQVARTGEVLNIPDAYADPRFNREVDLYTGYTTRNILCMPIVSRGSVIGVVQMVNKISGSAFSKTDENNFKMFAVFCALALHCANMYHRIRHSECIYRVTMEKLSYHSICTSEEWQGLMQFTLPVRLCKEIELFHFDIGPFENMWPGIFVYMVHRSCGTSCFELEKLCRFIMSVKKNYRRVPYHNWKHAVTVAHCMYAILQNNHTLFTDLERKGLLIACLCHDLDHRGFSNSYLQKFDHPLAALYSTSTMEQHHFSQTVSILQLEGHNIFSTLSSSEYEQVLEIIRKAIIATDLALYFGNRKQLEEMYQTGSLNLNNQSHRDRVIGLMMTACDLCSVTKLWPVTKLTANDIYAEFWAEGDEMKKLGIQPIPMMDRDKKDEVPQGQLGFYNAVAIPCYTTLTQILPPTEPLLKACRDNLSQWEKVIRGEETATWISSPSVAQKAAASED
row,Compound,IC50
1,N#Cc1ccc2[nH]c(Nc3ccc(Oc4ncccc4C(F)(F)F)cc3)nc2c1,112 nM
2,CC(=O)N1CCC(c2cccnc2Oc2ccc(C(=O)c3nc4ccccc4[nH]3)cc2)CC1,0.158 nM
3,C[C@]1(O)CCC[C@H](c2cccnc2Oc2ccc(Nc3ccccn3)cc2)C1,24.2 nM
4,COc1cc(-c2cccnc2Oc2ccc(C(=O)c3nc4ccccc4[nH]3)cc2)ccn1,1.61 nM
5,N#Cc1cccc(-c2cccnc2Oc2ccc(Nc3nc4ccccc4s3)cc2)c1,18.3 nM
6,COc1ccc(-c2cccnc2Oc2ccc(Nc3nc4ccccc4s3)cc2)cn1,23.7 nM
7,c1cnc(Oc2ccc(Nc3nc4ccccc4s3)cc2)c(-c2cncnc2)c1,0.303 nM
8,FC(F)(F)c1cc(-c2cccnc2Oc2ccc(Cc3nc4ccccc4[nH]3)cc2)ccn1,118 nM
9,FC(F)(F)c1cc(-c2cccnc2Oc2ccc(Nc3nc4ccccc4[nH]3)cc2)ccn1,36.7 nM
10,O=C(c1ccc(Oc2ncccc2-c2cnn(C3CC3)c2)cc1)c1nc2ccccc2[nH]1,23 nM
11,c1cnc(Oc2ccc(Nc3nc4ccccc4s3)cc2)c(-c2ccncn2)c1,22.4 nM
12,O=C(c1ccc(Oc2ncccc2C(=O)NCCc2ccccn2)cc1)c1nc2ccccc2[nH]1,1.74 nM
13,c1cnc(Oc2ccc(Nc3nc4ccccc4s3)cc2)c(-c2cccc3ncccc23)c1,6.91 nM
14,c1cnc(Oc2ccc(Nc3nc4ccccc4s3)cc2)c(-c2ccc3c(c2)OCCO3)c1,43.9 nM
15,c1cnc(Oc2ccc(Nc3nc4ccccc4s3)cc2)c(-c2ccc3c(c2)CCO3)c1,42.4 nM
16,O=C(c1ccc(Oc2ncccc2-c2ncnc3nc[nH]c23)cc1)c1nc2ccccc2[nH]1,32.7 nM
17,C1=C(c2cccnc2Oc2ccc(Nc3nc4ccccc4s3)cc2)CCCC1,72 nM
18,C[C@@H](Cc1ccccn1)NC(=O)c1cccnc1Oc1ccc(C(=O)c2nc3ccccc3[nH]2)cc1,0.971 nM and 0.541 nM
19,O=C(c1ccc(Oc2ncccc2N2CCCCC2)cc1)c1nc2ccccc2[nH]1,13.3 nM
20,O=C(c1ccc(Oc2ncccc2C(=O)N[C@@H](CO)Cc2ccccc2)cc1)c1nc2ccccc2[nH]1,12.8 nM
21,O=C(c1ccc(Oc2ncccc2C(=O)N[C@H](CO)Cc2ccccc2)cc1)c1nc2ccccc2[nH]1,0.839 nM
22,CC(C)(CNC(=O)c1cccnc1Oc1ccc(C(=O)c2nc3ccccc3[nH]2)cc1)c1ccccn1,1.48 nM

row,Compound,IC50
1,O=C(c1ccc(Oc2ncccc2-c2ccnc3ccccc23)cc1)c1nc2ccccc2[nH]1,0.67 nM
2,O=C(c1ccc(Oc2ncccc2C(=O)NC2(Cc3ccccc3)CC2)cc1)c1nc2ccccc2[nH]1,0.168 nM
3,c1cnc(Oc2ccc(Nc3nc4ccccc4s3)cc2)c(-c2ccnc3ccccc23)c1,7.22 nM
4,CC(C)(C)OC(=O)N1CC=C(c2cccnc2Oc2ccc(Nc3nc4ccccc4s3)cc2)CC1,44.4 nM
5,O=C(c1ccc(Oc2ncccc2-c2cccnc2)cc1)c1nc2ncccc2[nH]1,4.81 nM
6,O=C(c1ccc(Oc2ncccc2C(=O)N[C@H](CO)Cc2ccc(O)cc2)cc1)c1nc2ccccc2[nH]1,3.65 nM
7,O=C(c1ccc(Oc2ncccc2C(=O)NCCc2ccccc2)cc1)c1nc2ccccc2[nH]1,2.72 nM
8,COC1CCN(c2cccnc2Oc2ccc(Nc3nc4ccccc4s3)cc2)CC1,3.16 nM
9,Cc1ccc(CCNC(=O)c2cccnc2Oc2ccc(C(=O)c3nc4ccccc4[nH]3)cc2)cc1,3.11 nM
10,COC[C@H](Cc1ccccc1)NC(=O)c1cccnc1Oc1ccc(C(=O)c2nc3ccccc3[nH]2)cc1,1.64 nM
11,c1cncc(-c2cccnc2Oc2ccc(Nc3nc4ccccc4[nH]3)cc2)c1,0.179 nM
12,O=C(c1ccc(Oc2ncccc2C(=O)NC2Cc3ccccc3C2)cc1)c1nc2ccccc2[nH]1,56.7 nM
13,CC(=O)N1CC=C(c2cccnc2Oc2ccc(C(=O)c3nc4ccccc4[nH]3)cc2)CC1,0.194 nM
14,C[C@@H](CNC(=O)c1cccnc1Oc1ccc(C(=O)c2nc3ccccc3[nH]2)cc1)c1ccccc1,2.69 nM
15,C[C@H](CNC(=O)c1cccnc1Oc1ccc(C(=O)c2nc3ccccc3[nH]2)cc1)c1ccccc1,8.81 nM
16,CC(=O)N1CCC(c2cccnc2Oc2ccc([C@H](O)c3nc4ccccc4[nH]3)cc2)CC1,4.2 nM
17,OC(c1ccc(Oc2ncccc2C2CCOCC2)cc1)c1nc2ccccc2[nH]1 (configuration not stated),45.7 nM
18,C1=CO[C@H](c2cccnc2Oc2ccc(Nc3nc4ccccc4s3)cc2)CC1,22.3 nM
19,O[C@@H]1CCC[C@H](c2cccnc2Oc2ccc(Nc3nc4ccccc4s3)cc2)C1,2.21 nM
20,C[C@]1(O)CCC[C@H](c2cccnc2Oc2ccc(Nc3nc4ccccc4s3)cc2)C1,6.87 nM
21,C[C@]1(O)CCC[C@H](c2cccnc2Oc2ccc(C(=O)c3nc4ccccc4[nH]3)cc2)C1,1.14 nM
22,FC(F)(c1ccc(Oc2ncccc2C2CCOCC2)cc1)c1nc2ccccc2[nH]1,11.6 nM

row,Compound,IC50
1,O=C(c1ccc(Oc2ncccc2[C@@H]2CC[C@H](O)C2)cc1)c1nc2ccccc2[nH]1,0.675 nM
2,C[C@@]1(O)CCC[C@@H](c2cccnc2Oc2ccc(Nc3nc4ccccc4s3)cc2)C1,3.66 nM
3,C[C@H](Cc1ccc(F)cc1)NC(=O)c1cccnc1Oc1ccc(C(=O)c2nc3ccccc3[nH]2)cc1,0.135 nM
4,COc1cncc(-c2cccnc2Oc2ccc(C(=O)c3nc4ccccc4[nH]3)cc2)c1,0.622 nM
5,COc1ccc(-c2cccnc2Oc2ccc(C(=O)c3nc4ccccc4[nH]3)cc2)cn1,1.27 nM
6,C[C@H](Cc1ccccn1)NC(=O)c1cccnc1Oc1ccc(C(=O)c2nc3ccccc3[nH]2)cc1,6.83 nM
7,c1cnc(Oc2ccc(Nc3nc4ccccc4s3)cc2)c([C@H]2CCOC2)c1,0.865 nM
8,O=C(c1ccc(Oc2ncccc2[C@H]2CCC[C@@H](O)C2)cc1)c1nc2ccccc2[nH]1,0.99 nM
9,C[C@]1(O)CCCC(c2cccnc2Oc2ccc(C(=O)c3nc4ccccc4[nH]3)cc2)C1 (some centres not stated),1.22 nM
10,C[C@]1(O)CC[C@@H](c2cccnc2Oc2ccc(Nc3nc4ccccc4s3)cc2)CC1,12.6 nM
11,C[C@]1(O)CC[C@@H](c2cccnc2Oc2ccc(C(=O)c3nc4ccccc4[nH]3)cc2)CC1,1.63 nM
12,C[C@]1(O)CC[C@H](c2cccnc2Oc2ccc(C(=O)c3nc4ccccc4[nH]3)cc2)CC1,1.42 nM
13,C[C@]1(O)CC[C@H](c2cccnc2Oc2ccc(Nc3nc4ccccc4s3)cc2)CC1,4.51 nM
14,Cn1c(C(=O)c2ccc(Oc3ncccc3C3(F)CCOCC3)cc2)nc2ccccc21,0.749 nM
15,O[C@@H]1CC[C@H](c2cccnc2Oc2ccc(Nc3nc4ccccc4s3)cc2)C1,2.64 nM
16,COc1ncccc1-c1cccnc1Oc1ccc(Nc2nc3ccccc3s2)cc1,2.54 nM
17,COc1cccc(-c2cccnc2Oc2ccc(Nc3nc4ccccc4s3)cc2)n1,164 nM
18,O[C@H]1CCC[C@@H](c2cccnc2Oc2ccc(Nc3nc4ccccc4s3)cc2)C1,3.75 nM
19,O[C@H]1CC[C@H](c2cccnc2Oc2ccc(Nc3nc4ccccc4s3)cc2)C1,1.21 nM
20,O[C@H]1CC[C@@H](c2cccnc2Oc2ccc(Nc3nc4ccccc4s3)cc2)C1,2.54 nM

# More lines, now with the values ahead:
row,IC50,Compound
1,0.256 nM,O=C(c1ccc(Oc2ncccc2-c2ccncc2)cc1)c1nc2ccccc2[nH]1
2,0.175 nM,CC(=O)N1CCC(c2cccnc2Oc2ccc(Nc3nc4ccccc4s3)cc2)CC1
3,44.7 nM,O=C(c1ccc(Oc2ncccc2Br)cc1)c1nc2ccccc2[nH]1
4,691 nM,Brc1cccnc1Oc1ccc(Nc2nc3ccccc3s2)cc1
5,0.76 nM,Cc1cc(-c2cccnc2Oc2ccc(C(=O)c3nc4ccccc4[nH]3)cc2)ccn1
6,6.28 nM,Cn1cc(-c2cccnc2Oc2ccc(C(=O)c3nc4ccccc4[nH]3)cc2)cn1
7,1.59 nM,O=C(c1ccc(Oc2ncccc2N2CCOCC2)cc1)c1nc2ccccc2[nH]1
8,32 nM,O=C(c1ccc(Oc2ncccc2-c2cccnc2)cc1)c1nc2ccccc2s1
9,5 nM,Cc1cc(-c2cccnc2Oc2ccc(Nc3nc4ccccc4s3)cc2)ccn1
10,1610 nM,O=C(c1ccc(Oc2ncccc2Br)cc1)c1nc2ccccc2n1C1CCCCO1 (configuration not stated)
11,98.8 nM,O=C(c1ccc(Oc2ncccc2N2CCOCC2)cc1)c1nc2ccccc2s1
12,12.8 nM,COC[C@H](C)NC(=O)c1cccnc1Oc1ccc(C(=O)c2nc3ccccc3[nH]2)cc1
13,7.45 nM,O=C(c1ccc(Oc2ncccc2-c2ccncn2)cc1)c1nc2ccccc2[nH]1
14,0.177 nM,Cc1ccc(-c2cccnc2Oc2ccc(C(=O)c3nc4ccccc4[nH]3)cc2)cn1
15,74.6 nM,O=C(c1ccc(Oc2ncccc2Br)cc1)c1nc2ccc(F)cc2[nH]1
16,3940 nM,O=C(c1ccc(Oc2ncccc2Br)cc1)c1nc2ccccc2s1
17,14 nM,O=C(c1ccc(Oc2ncccc2N2CCCC2)cc1)c1nc2ccccc2[nH]1

row,IC50,Compound
1,15.2 nM,CN(c1ccc(Oc2ncccc2-c2cccnc2)cc1)c1nc2ccccc2s1
2,2.21 nM,C1=C(c2cccnc2Oc2ccc(Nc3nc4ccccc4s3)cc2)CCOC1
3,0.219 nM,Cc1ccc(-c2cccnc2Oc2ccc(Nc3nc4ccccc4s3)cc2)cn1
4,0.363 nM,CC(=O)N1CC=C(c2cccnc2Oc2ccc(Nc3nc4ccccc4s3)cc2)CC1
5,1.01 nM,O=C1C=C(c2cccnc2Oc2ccc(C(=O)c3nc4ccccc4[nH]3)cc2)CC1
6,2.84 nM,O=C1C=C(c2cccnc2Oc2ccc(Nc3nc4ccccc4s3)cc2)CC1
7,54.2 nM,c1cnc(Oc2ccc(Nc3nc4ccccc4s3)cc2)c([C@H]2CCCO2)c1
8,4.97 nM and 13.3 nM,O=C(c1ccc(Oc2ncccc2[C@@H]2CCCO2)cc1)c1nc2ccccc2[nH]1
9,0.92 nM,O=C(c1ccc(Oc2ncccc2[C@@H]2CCOC2)cc1)c1nc2ccccc2[nH]1
10,0.311 nM,O=C(c1ccc(Oc2ncccc2C2(F)CCOCC2)cc1)c1nc2ccccc2[nH]1
11,0.195 nM,CN1C[C@@H](c2cccnc2Oc2ccc(Nc3nc4ccccc4s3)cc2)CC1=O
12,0.509 nM,Cn1c(C(=O)c2ccc(Oc3ncccc3C3CCOCC3)cc2)nc2ccccc21
13,2.49 nM,c1cnc(Oc2ccc(Nc3nc4ccccc4s3)cc2)c([C@@H]2CCCOC2)c1
14,0.268 nM,CC(=O)N1CCC[C@@H](c2cccnc2Oc2ccc(Nc3nc4ccccc4s3)cc2)C1
15,6.38 nM,O[C@H]1CC[C@H](c2cccnc2Oc2ccc(Nc3nc4ccccc4s3)cc2)CC1
16,1.63 nM,O[C@H]1CC[C@@H](c2cccnc2Oc2ccc(Nc3nc4ccccc4s3)cc2)CC1

# — ChEMBL document CHEMBL3638462, “Pyridine and pyrimidine derivatives as phosphodiesterase 10 inhibitors” (2014)
